The target of series [1] is T1, delta opioid receptor (Rattus norvegicus, UniProt P33533).
T1 construct: Rat (Sprague-Dawley) brain membranes were prepared; from tissue; host or cells: rat (Sprague-Dawley) brain membranes
Briefly: Delta receptor binding in rat brain membranes (Delta Receptor IC50). As to the method: The assay procedures used for such determinations of delta receptor activity are set out below.
Inhibition of receptor binding: Rat (Sprague-Dawley) brain membranes were prepared and binding assays were performed at 24° C. for 90 minutes as described by Chang, et al. (J. Biol. Chem. 254, 2610 (1979) and Mol. Pharmacol. 16, 91 (1979)) with a filtration method (GF/C filter). Delta receptor binding assays were performed with (^3H)-(+)-4-((α-R*)-α-((2S*,5R*)-4-Allyl-2,5-dimethyl-1-piperazinyl)-3-hydroxybenzyl)-N,N-diethylbenzamide (0.1 nM), having an activity of ˜48 Ci/mmole, or with ^3H-[D-Pen^2,D-Pen^5-(enkephalin)](^3H-DPDPE, 0.1 nM) having an activity of ˜50 Ci/mmole. Non-specific binding was determined in the presence of 1 mM of the unlabeled ligand. The potency of compounds in inhibiting the binding of (^3H)-(+)-4-((α-R*)-α-((2S*,5R*)-4-Allyl-2,5-dimethyl-1-piperazinyl)-3-hydroxy-benzyl)-N,N-diethylbenzamide or ^3H-DPDPE was determined as the concentration which reduced the binding of the labeled compounds by 50 percent (Delta Receptor IC50).

Series [2] concerns the target T2, delta opioid receptor in the mouse vas deferens (Mus musculus, UniProt P32300).
T2 construct: Vasa deferentia were removed from mice; from tissue; host or cells: mouse vas deferens (isolated organ bath)
The experiment in a line: Electrically stimulated mouse vas deferens, delta opioid agonist potency (ED50).

Series [3] has as its system rats. Briefly: animal or person. In kind it is in vivo. To be noted: Rattus norvegicus, iv, read-out: ED50 to produce analgesia.
Series [4] in a line: in vivo. To be noted: rat, iv.
Series [5] addresses T2, delta opioid receptor in the mouse vas deferens. The experiment in a line: Antagonist potency (pA2, Schild analysis) in electrically stimulated mouse vas deferens. Here is the method: In vitro bioassays: Vasa deferentia were removed from mice and suspended between platinum electrodes with 0.5 g of tension in organ bath chambers containing a modified Krebs' buffer of the following composition (millimolar): NaCl, 118; KCl, 4.75; CaCl2, 2.6; KH2PO4, 1.20; NaHCO3, 24.5; and glucose, 11. The buffer was saturated with 95% O2/5% CO2 and kept at 37° C. Tissues were stimulated at supramaximal voltage with 10 Hz pulse trains for 400 msec.; train interval 10 seconds; and 0.5 msec pulse duration. […] The ED50 values were extrapolated from curves showing the dose concentration plotted against the response (Lord, et al., Nature 267, 495, (1977)).

Series [6] has as its system rats. Briefly: Tail-pinch analgesia during alfenta infusion with delta agonist (Example 14). The class given is in vivo, rat. As to conditions: continuous i.v. infusion of alfenta and i.v. bolus of various doses. Here is the method:
Analgesia was also assessed with a tail-pinch method at the same time points that blood was drawn.

Series [7] deals with rats. To be noted: rat, in vivo, iv.
The mark [8] stands for this setting: rat brain membranes, radioligand 3H-[D-Pen2,D-Pen5]-(enkephalin) 0.1 nM, read-out: Delta Receptor IC50.
The mark [9] stands for this setting: inhibition of electrically induced muscle contractions, read-out: Mouse Vas Deferens ED50.
Setting [10] is: blockade of inhibitory effect of [D-Ala2,D-Leu5] enkephalin (footnote b).

Where “and” joins values, the source holds several entries; their conditions need not be identical. Equal entries are not always repeated. Entries after “also recorded” stand apart in the source; their conditions may differ. Where two headings read alike, the source gives them in different places.

Experimental findings from patent publication US6919350B2 (priority 1996, dated 2005) are described below.

T1 sequence (P33533 whole entry): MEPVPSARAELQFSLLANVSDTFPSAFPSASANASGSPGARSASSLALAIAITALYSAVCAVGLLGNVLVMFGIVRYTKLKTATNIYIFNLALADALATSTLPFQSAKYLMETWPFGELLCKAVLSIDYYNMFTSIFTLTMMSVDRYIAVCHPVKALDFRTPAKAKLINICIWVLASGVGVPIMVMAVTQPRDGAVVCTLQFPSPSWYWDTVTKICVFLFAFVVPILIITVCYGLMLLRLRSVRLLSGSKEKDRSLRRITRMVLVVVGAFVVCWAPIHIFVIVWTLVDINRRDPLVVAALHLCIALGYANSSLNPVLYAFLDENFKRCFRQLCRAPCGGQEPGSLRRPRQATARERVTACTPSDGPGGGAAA
T2 sequence (P32300 whole entry): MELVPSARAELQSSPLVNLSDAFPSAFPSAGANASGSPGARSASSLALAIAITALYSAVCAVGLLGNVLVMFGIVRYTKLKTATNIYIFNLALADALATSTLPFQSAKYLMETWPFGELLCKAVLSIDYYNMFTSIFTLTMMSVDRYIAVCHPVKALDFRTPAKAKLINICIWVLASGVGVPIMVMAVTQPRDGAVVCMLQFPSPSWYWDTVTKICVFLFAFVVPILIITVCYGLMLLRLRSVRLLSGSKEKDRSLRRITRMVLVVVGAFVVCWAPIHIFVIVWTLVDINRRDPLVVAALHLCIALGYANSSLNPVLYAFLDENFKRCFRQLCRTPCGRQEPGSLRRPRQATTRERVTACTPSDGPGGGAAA

With `C=CCN1C[C@H](C)N([C@H](c2ccc(C(N)=O)cc2)c2cccc(O)c2)C[C@H]1C` (relative stereo) [Compound 21, (±)-4-((αR*)-α-((2S*,5R*)-4-Allyl-2,5-dimethyl-1-piperazinyl)-3-hydroxybenzyl)benzamide], in series [1] (setting [8]), the IC50 stood at 1.6 nM. For the same compound, in series [2] (setting [9]), the EC50 was 44 nM.

For the compound `C=CCN1[C@H](C)CN(C(c2ccc(C(=O)N(CC)CC)cc2)c2cccc(O)c2)C[C@@H]1C` (mixture of isomers) [Compound 23, (±)-cis-4-(α-(4-Allyl-3,5-dimethyl-1-piperazinyl)-3-hydroxybenzyl)-N,N-diethylbenzamide], in series [1] (setting [8]), the IC50 is 3.3 nM. For the same compound, the EC50 in series [2] (setting [9]) is 42 nM.

Consider `C=CCN1C[C@H](C)N([C@@H](c2cccc(O)c2)c2cccc(C(=O)N(C)c3cccc(F)c3)c2)C[C@H]1C` [Compound 3290W93], for which the median effective dose (ED50) was determined as 0.08 mg/kg in series [3] and 2 mg/kg in series [4].

`C/C=C\CN1[C@H](C)CN(C(c2ccc(C(=O)N(CC)CC)cc2)c2cccc(O)c2)C[C@@H]1C` (relative stereo) [Compound 17, cis-4-(α-(4-((Z)-2-butenyl)-3,5-dimethyl-1-piperazinyl)-3-hydroxybenzyl)-N,N-diethylbenzamide] had an antagonist dissociation constant (Kb) in series [5] (blockade of inhibitory effect of (±)-4-((α-R*)-α-((2S*,5R*)-4-allyl-2,5-dimethyl-1-piperazinyl)-3-hydroxybenzyl)-N,N-diethylbenzamide (footnote c)) of 6.31 nM. Moreover, the IC50 in series [1] (setting [8]) is 1.5 nM.

For `C=CCN1C[C@@H](C)N([C@H](c2ccc(S(=O)(=O)N(C)C)cc2)c2cccc(O)c2)C[C@@H]1C` (relative stereo) [Compound 19, (±)-4-((αR*)-α-((2R*,5S*)-4-Allyl-2,5-dimethyl-1-piperazinyl)-3-hydroxybenzyl)-N,N-dimethylbenzenesulfonamide], the IC50 in series [1] (setting [8]) is 2.6 nM. Moreover, the EC50 in series [2] (setting [9]) is 37 nM.

For the compound `C=CCN1C[C@H](C)N([C@H](c2ccc(C(N)=O)cc2)c2cccc(O)c2)C[C@@H]1C` [Compound 5], the IC50 in series [1] (setting [8]) was 1.6 nM. Also, the EC50 in series [2] (setting [9]) is 260 nM.

For the compound `CCN(CC)C(=O)c1ccc([C@H](c2cccc(O)c2)N2C[C@@H](C)NC[C@H]2C)cc1` [Compound 7, N,N-Diethyl-4-((αR)-3-hydroxy-α-((2R,5R)-2,5-dimethyl-1-piperazinyl)benzyl)benzamide], in series [1] (setting [8]), the IC50 turned out to be 1.1 nM. In addition, the EC50 in series [2] (setting [9]) was 560 nM.

Consider `C[C@H]1CN([C@H](c2ccc(C(=O)N3CCCCC3)cc2)c2cccc(O)c2)[C@@H](C)CN1C` [Compound 12, 3-((αR)-4-(piperidinocarbonyl)-α-((2S,5S)-2,4,5-trimethyl-1-piperazinyl)benzyl)phenol], for which the IC50 in series [1] (setting [8]) was found to be 1.2 nM. For the same compound, in series [2] (setting [9]), the EC50 was 250 nM.

Regarding `C=CCN1C[C@H](C)N([C@H](c2ccc(C(=O)N(C)CC)cc2)c2cccc(O)c2)C[C@@H]1C` [Compound 8, 4-((αR)-α-((2S,5S)-4-Allyl-2,5-dimethyl-1-piperazinyl)-3-hydroxybenzyl)-N-ethyl-N-methylbenzamide], the IC50 in series [1] (setting [8]) came to 0.86 nM. For the same compound, in series [2] (setting [9]), the EC50 is 30 nM.

In the case of `C=CCN1C[C@@H](C)N([C@H](c2ccc(S(C)(=O)=O)cc2)c2cccc(O)c2)C[C@@H]1C` (relative stereo) [Compound 18, (±)-3-((αR*)-α-((2R*,5S*)-4-allyl-2,5-dimethyl-1-piperazinyl)-4-(methylsulfonyl)benzyl)phenol], the IC50 in series [1] (setting [8]) is 1.3 nM. For the same compound, in series [2] (setting [9]), the EC50 was found to be 250 nM.

With “cis-4-(α-(3,5-Dimethyl-4-(methylallyl)-1-piperazinyl)-3-hydroxybenzyl)-N,N-diethylbenzamide [Compound 24]”, in series [2] (setting [9]), the EC50 came out at 20 nM.

Regarding “3-((αR)-α-((2S,5S)-4-Allyl-2,5-dimethyl-1-piperazinyl)benzyl)phenol and 3-((αS)-α-((2S,5S)-4-Allyl-2,5-dimethyl-1-piperazinyl)benzyl)phenol [Compound 9]”, in series [1] (setting [8]), the IC50 was 1.5 nM. In addition, the EC50 in series [2] (setting [9]) came out at 450 nM.

As to `C=CCN1C[C@H](C)N([C@H](c2ccc(C(=O)N(CC)CC)cc2)c2cccc(O)c2)C[C@H]1C` [BW373U86, (+)-4-((αR)-α-((2S,5R)-4-allyl-2,5-dimethyl-1-piperazinyl)-3-hydroxybenzyl)-N,N-diethylbenzamide], in series [6], the “effect on analgesia induced by alfenta (tail-pinch)” value is “did not significantly affect the analgesia”. Moreover, the “effect on alfenta-induced respiratory depression (blood pCO2)” value in series [7] was “dose dependently reduced the level of pCO2; also recorded: blocks the respiratory depression”.

Consider `CCN(CC)C(=O)c1ccc([C@H](c2cccc(O)c2)N2C[C@@H](C)N(C)C[C@H]2C)cc1` [Compound 15, N,N-diethyl-4-(3-hydroxy-(αR)-α-((2R,5R)-2,4,5-trimethyl-1-piperazinyl)benzyl)benzamide], for which, in series [1] (setting [8]), the IC50 worked out at 2.8 nM.

`CCN(CC)C(=O)c1ccc([C@H](c2cccc(O)c2)N2C[C@H](C)N(C)C[C@H]2C)cc1` (relative stereo) [Compound 10, (±)-N,N-diethyl-4-((αR*)-3-hydroxy-α-((2R*,5S*)-2,4,5-trimethyl-1-piperazinyl)benzyl)benzamide] displayed a melting point of 220 to 221 °C. The IC50 in series [1] (setting [8]) was determined as 1.1 nM. Further, the EC50 in series [2] (setting [9]) was 90 nM.

Turning to `CCN(CC)C(=O)c1ccc([C@H](c2cccc(O)c2)N2C[C@H](C)NC[C@H]2C)cc1` (relative stereo) [Compound 22, (±)-4-((αR*)-α-((2R*,5S*)-2,5-Dimethyl-1-piperazinyl)-3-hydroxybenzyl)-N,N-diethylbenzamide], in series [1] (setting [8]), the IC50 was 0.7 nM. The EC50 in series [2] (setting [9]) was determined as 4400 nM.

For the compound `CCN(CC)C(=O)c1ccc([C@@H](c2cccc(O)c2)N2C[C@H](C)N(C)C[C@@H]2C)cc1` [Compound 14, (+)N,N-Diethyl-4-(3-hydroxy-(αS)-α-((2S,5S)-2,4,5-trimethyl-1-piperazinyl)benzyl)-benzamide], the Kb in series [5] (setting [10]) is 79.4 nM. Also, the IC50 in series [1] (setting [8]) amounted to 2 nM.

As for `CCN(C)C(=O)c1ccc([C@H](c2cccc(O)c2)N2C[C@H](C)N(C)C[C@@H]2C)cc1` [Compound 16, N-ethyl-4-((αR)-3-hydroxy-α-((2S,5S)-2,4,5-trimethyl-1-piperazinyl)benzyl)-N-methylbenzamide], in series [5] (setting [10]), the antagonist equilibrium constant (Kb) was 63.1 nM. In series [1] (setting [8]), the IC50 came to 3.1 nM.

Take `C=CCN1C[C@H](C)N([C@@H](c2cccc(O)c2)c2cccc(C(N)=O)c2)C[C@H]1C` (relative stereo) [Compound 6, (±)-3-((αR*)-α-((2S*,5R*)-4-Allyl-2,5-dimethyl-1-piperazinyl)-3-hydroxybenzyl)-benzamide]: in series [1] (setting [8]), the IC50 stood at 4 nM. For the same compound, in series [2] (setting [9]), the EC50 is 25 nM.

For `C[C@H]1CN([C@H](c2ccc(C(=O)N3CCCC3)cc2)c2cccc(O)c2)[C@@H](C)CN1C` [Compound 13, 3-((αR)-4-(1-pyrrolidinylcarbonyl)-α-((2S,5S)-2,4,5-trimethyl-1-piperazinyl)benzyl)phenol], in series [1] (setting [8]), the IC50 was 0.3 nM and 0.8 nM. Also, the EC50 in series [2] (setting [9]) worked out at 200 nM.

For the compound `C=CCN1C[C@@H](C)N([C@@H](c2ccc(C(=O)N(CC)CC)cc2)c2cccc(O)c2)C[C@H]1C` [Compound 2, (−)-4-((αS)-α-((2R,5R)-4-Allyl-2,5-dimethyl-1-piperazinyl)-3-hydroxybenzyl)-N,N-diethylbenzamide], the IC50 in series [1] came to 1 nM.

Consider `C=CCN1C[C@@H](C)N([C@H](c2ccc(C(=O)N(CC)CC)cc2)c2cccc(O)c2)C[C@H]1C` (stereo in doubt) [Compound 1, (−)-4-((αR)-α-((2R,5R)-4-allyl-2,5-dimethyl-1-piperazinyl)-3-hydroxybenzyl)-N,N-diethylbenzamide], for which, in series [1], the IC50 is 2 nM. In series [2], this compound came in with an EC50 of 43 nM.

`CCCN1C[C@@H](C)N([C@@H](c2ccc(C(=O)N(CC)CC)cc2)c2cccc(O)c2)C[C@H]1C` [Compound 4, (−)-4-((αS)-α-((2R,5R)-2,5-Dimethyl-4-propyl-1-piperazinyl)-3-hydroxybenzyl)-N,N-diethylbenzamide]: in series [2] (setting [9]), the EC50 was over 1000 nM.

On to `C=CCN1C[C@H](C)N([C@H](c2ccccc2)c2cccc(O)c2)C[C@H]1C` (relative stereo) [Compound 20, (±)-3-((αR*)-α-((2S*,5R*)-4-Allyl-2,5-dimethyl-1-piperazinyl)benzyl)phenol], for which, in series [1] (setting [8]), the IC50 amounted to 1.3 nM. In addition, in series [2] (setting [9]), the EC50 was determined as 78 nM.
